For 1 molecule, IC50 results are on record in patent US20060069038A1, “Irreversible caspase-3 inhibitors as active site probes” (priority 2003, published 2006).

Where two headings read alike, the source gives them in different places.

The assay addresses T1, purified recombinant human caspase-3 (Homo sapiens, UniProt P42574).
T1 construct: Active site shared between large and small caspase subunit
T1 sequence (P42574 29-175 limits assumed): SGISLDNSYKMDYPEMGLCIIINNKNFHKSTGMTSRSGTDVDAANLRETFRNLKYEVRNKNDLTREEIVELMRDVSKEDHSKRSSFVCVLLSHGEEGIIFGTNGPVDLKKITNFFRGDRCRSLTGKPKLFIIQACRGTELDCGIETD
T1 sequence (P42574 176-277 limits assumed): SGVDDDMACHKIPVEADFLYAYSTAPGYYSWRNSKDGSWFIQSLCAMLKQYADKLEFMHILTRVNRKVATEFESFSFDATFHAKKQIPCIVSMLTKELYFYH
Put plainly: Caspase inhibitor titration by [125I]-M808 labeling of purified recombinant human caspase-3 (SDS-PAGE). The class given is binding. On the procedure: FIG. 3. Potency assessment caspase inhibitors by [^125]-M808 labeling and by DEVD-AMC cleavage activity. A, B-Caspase inhibitor titration and [^125]-M808 labeling with purified recombinant human caspase-3. A-M791 with 5 minute labeling reaction and M791 with 60 minute labeling reaction. In A, the indicated IC50 was defined as the concentration of M791 that reduced the intensity of [^125I]-M808-labeled p17 subunit of caspase-3 by 50%. B-Caspase inhibitor titration and DEVD-AMC cleavage activity with recombinant human caspase-3 that had been incubated with indicated concentration of M791. Under the fluorogenic assay conditions Ki=IC50/2.
The determination of caspase activity by [^125I]-M808 labeling was performed by pre-incubating purified recombinant human caspase-3 with indicated amounts of caspase inhibitor (M791) or vehicle (DMSO), for 1 hour at 25° C. in ICE buffer III (50 mM Hepes-KOH pH 7.0, 0.1% CHAPS, 10% sucrose, 2 mM EDTA), supplemented with 5 mM DTT. [^125I]-M808 was added to a final concentration of 1.25 μM and incubated for 5 min at 25° C. Active caspases in tissue or cell extracts were labeled by incubating 60-80 μg of lysate with [^125I]-M808 for 15 minutes at 25° C. Labeling was stopped by addition of Laemli buffer (2% SDS; 0.35 M O-mercaptoethanol; 50 mM Tris-Cl pH 6.8; 10% glycerol; 0.05% bromophenol blue) and by heating at 95° C. for 5 minutes. […]

What is called IC50 is the point on the concentration scale where inhibition reaches its midpoint.

As to `COc1ccc(-c2nc(C)no2)cc1CC(=O)N[C@H](C(=O)N[C@@H](CC(=O)O)C(=O)CSCc1ccccc1)C(C)C` [Example M791, (3S)-5-(benzylthio)-3-[(N-{[2-methoxy-5-(3-methyl-1,2,4-oxadiazol-5-yl)phenyl]acetyl}-L-valyl)amino]4-oxopentanoic acid], the IC50 was found to be 0.45 nM ([125I]-M808 added for 5 minutes, read-out: IC50 by [125I]-M808 labeling (50% reduction of labeled p17 subunit)) and 1 nM (incubating with [125I]-M808 for 60 minutes instead of 5, read-out: apparent IC50 by [125I]-M808 labeling).
